Among the data in the supplement of paper PMC12137928 are IC50 cell viability values, retold here.

Where a name gives a salt, the structure may show the parent alone. A value given as a limit tells only on which side of the number the result lay.

The subject of this assay is HCT116. Particulars: 72 h. The method in brief:
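Luminescence was read with CellTiter-Glo in HCT116 cells seeded at 250 per well in 1536-well plates. Signals were scaled between vehicle at 0% and positive control at -100%, then pattern-corrected. IC50 and maximal efficacy were obtained by fitting a four-parameter Hill equation.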

Take `C[Si](C)(C)O[Si](C)(C)O[Si](C)(C)C` [Trisiloxane, octamethyl-]: the IC50 cell viability reads like this: (ICRF193 0 nM) above 45.8 µM; (ICRF193 200 nM) above 45.8 µM.

`Cc1c(C)c2c(c(C)c1O)CCC(C)(COc1ccc(CC3SC(=O)NC3=O)cc1)O2` (configuration not stated) [Troglitazone] yielded an IC50 cell viability (ICRF193 0 nM) above 45.8 µM and an IC50 cell viability (ICRF193 200 nM) above 45.8 µM.

Take `CO[C@H]1C[C@H](O[C@H]2[C@H](C)[C@@H](O[C@@H]3O[C@H](C)C[C@H](N(C)C)[C@H]3OC(C)=O)[C@@H](C)C[C@@]3(CO3)C(=O)[C@H](C)[C@@H](OC(C)=O)[C@@H](C)[C@@H](C)OC(=O)[C@@H]2C)O[C@@H](C)[C@@H]1OC(C)=O` [Troleandomycin]: the IC50 cell viability was above 45.8 µM (ICRF193 0 nM) and above 45.8 µM (ICRF193 200 nM).

Compound `NC(CO)(CO)CO` [Tromethamine] returned an IC50 cell viability (ICRF193 0 nM) above 45.8 µM and an IC50 cell viability (ICRF193 200 nM) above 45.8 µM.

In the case of `CCN(Cc1ccncc1)C(=O)C(CO)c1ccccc1` (configuration not stated) [Tropicamide], the IC50 cell viability is above 45.8 µM (ICRF193 0 nM) and above 45.8 µM (ICRF193 200 nM).

Consider `CN1[C@@H]2CC[C@H]1C[C@@H](OC(=O)c1c[nH]c3ccccc13)C2` [Tropisetron], for which the IC50 cell viability was above 45.8 µM (ICRF193 0 nM) and above 45.8 µM (ICRF193 200 nM).

For the compound `O=C(O[C@H]1C[C@H]2CC[C@@H](C1)[N+]21CCCC1)C(O)(c1ccccc1)c1ccccc1` [Trospium chloride], the IC50 cell viability runs as follows: (ICRF193 0 nM) above 45.8 µM; (ICRF193 200 nM) above 45.8 µM.

Take `Nc1ccn([C@@H]2CO[C@H](CO)O2)c(=O)n1` [Troxacitabine]: the IC50 cell viability was above 45.8 µM (ICRF193 0 nM) and above 45.8 µM (ICRF193 200 nM).

On to `COc1cc(C(=O)NC2CCCNC2)cc(OC)c1OC` (configuration not stated) [Troxipide], for which the IC50 cell viability is, setting by setting: (ICRF193 0 nM) above 45.8 µM; (ICRF193 200 nM) above 45.8 µM.

Turning to `CC(C)(C)NCC(O)c1ccccc1Cl` (configuration not stated) [Tulobuterol hydrochloride], the IC50 cell viability reads like this: (ICRF193 0 nM) above 45.8 µM; (ICRF193 200 nM) above 45.8 µM.

With `CC(C)C[C@H](NC(=O)[C@@H](O)[C@H](N)Cc1ccccc1)C(=O)O` [Ubenimex], the IC50 cell viability was above 45.8 µM (ICRF193 0 nM) and above 45.8 µM (ICRF193 200 nM).

In the case of `OC(c1ccccc1)(c1ccccc1)C12CC[N+](CCOCc3ccccc3)(CC1)CC2` [Umeclidinium bromide], the IC50 cell viability reads like this: (ICRF193 0 nM) above 45.8 µM; (ICRF193 200 nM) above 45.8 µM.

For `Oc1ncc(N(CCCl)CCCl)c(O)n1` [Uracil mustard], the IC50 cell viability (ICRF193 0 nM) is above 45.8 µM and the IC50 cell viability (ICRF193 200 nM) is above 45.8 µM.

`O=c1cc[nH]c(=O)[nH]1` [Uracil] displayed an IC50 cell viability (ICRF193 0 nM) above 45.8 µM and an IC50 cell viability (ICRF193 200 nM) above 45.8 µM.

On to `COc1ccccc1N1CCN(CCCNc2cc(=O)n(C)c(=O)n2C)CC1` [Urapidil hydrochloride], for which the IC50 cell viability by setting is: (ICRF193 0 nM) above 45.8 µM; (ICRF193 200 nM) above 45.8 µM.

Turning to `CC(=O)OC[C@H]1O[C@@H](n2ccc(=O)[nH]c2=O)[C@H](OC(C)=O)[C@@H]1OC(C)=O` [Uridine triacetate], the IC50 cell viability was above 45.8 µM (ICRF193 0 nM) and above 45.8 µM (ICRF193 200 nM).

With `C[C@H](CCC(=O)O)[C@H]1CC[C@H]2[C@@H]3[C@@H](O)C[C@@H]4C[C@H](O)CC[C@]4(C)[C@H]3CC[C@]12C` [Ursodiol], the IC50 cell viability was above 45.8 µM (ICRF193 0 nM) and above 45.8 µM (ICRF193 200 nM).

For the compound `CCCCC(=O)N(Cc1ccc(-c2ccccc2-c2nnn[nH]2)cc1)[C@H](C(=O)O)C(C)C` [VALSARTAN], the IC50 cell viability (ICRF193 0 nM) is above 45.8 µM and the IC50 cell viability (ICRF193 200 nM) was above 45.8 µM.

In the case of `NCCC[C@H](N)CC(=O)N[C@H]1CNC(=O)[C@H]([C@H]2C[C@H](O)NC(N)=N2)NC(=O)/C(=C/NC(N)=O)NC(=O)[C@H](CO)NC(=O)[C@H](CO)NC1=O` [VIOMYCIN SULFATE], the IC50 cell viability by setting is: (ICRF193 0 nM) above 45.8 µM; (ICRF193 200 nM) above 45.8 µM.

For the compound `O=C(O)C[C@@H]1CC[C@H](NC(=O)Cc2cccs2)B(O)O1` [Vaborbactam], the IC50 cell viability reads like this: (ICRF193 0 nM) above 45.8 µM; (ICRF193 200 nM) above 45.8 µM.

With `CC(C)[C@H](N)C(=O)OCCOCn1cnc2c(=O)nc(N)[nH]c21` [Valaciclovir], the IC50 cell viability was above 45.8 µM (ICRF193 0 nM) and above 45.8 µM (ICRF193 200 nM).

Turning to `COc1cc2c(cc1OC)[C@H]1C[C@@H](OC(=O)[C@@H](N)C(C)C)[C@H](CC(C)C)CN1CC2` [Valbenazine], the IC50 cell viability was above 45.8 µM (ICRF193 0 nM) and above 45.8 µM (ICRF193 200 nM).

As for `Cc1onc(-c2ccccc2)c1-c1ccc(S(N)(=O)=O)cc1` [Valdecoxib], the IC50 cell viability is above 45.8 µM (ICRF193 0 nM) and above 45.8 µM (ICRF193 200 nM).

As to `CC(C)[C@H](N)C(=O)OCC(CO)OCn1cnc2c(=O)[nH]c(N)nc21` (some centres not stated) [Valganciclovir·HCl], the IC50 cell viability is, setting by setting: (ICRF193 0 nM) above 45.8 µM; (ICRF193 200 nM) above 45.8 µM.

With `CCCC(CCC)C(=O)O` [Valproic acid sodium salt], the IC50 cell viability is, setting by setting: (ICRF193 0 nM) above 45.8 µM; (ICRF193 200 nM) above 45.8 µM.

In the case of `CN[C@H](CC(C)C)C(=O)N[C@H]1C(=O)N[C@@H](CC(N)=O)C(=O)N[C@H]2C(=O)N[C@H]3C(=O)N[C@H](C(=O)N[C@H](C(=O)O)c4cc(O)cc(O)c4-c4cc3ccc4O)[C@H](O)c3ccc(c(Cl)c3)Oc3cc2cc(c3O[C@@H]2O[C@H](CO)[C@@H](O)[C@H](O)[C@H]2O[C@H]2C[C@](C)(N)[C@H](O)[C@H](C)O2)Oc2ccc(cc2Cl)[C@H]1O` [Vancomycin hydrochloride], the IC50 cell viability was above 45.8 µM (ICRF193 0 nM) and above 45.8 µM (ICRF193 200 nM).
